Results as given in ChEMBL document CHEMBL4507315 (2021).

Assays:
[1] = target: Mitogen-activated protein kinase kinase kinase 13 (Homo sapiens) (UniProt O43283); conditions: Compound concentration 100.0 nM
[2] = target: Phosphatidylinositol 5-phosphate 4-kinase type-2 beta (Homo sapiens) (UniProt P78356); conditions: Compound concentration 100.0 nM
[3] = target: Platelet-derived growth factor receptor beta (Homo sapiens) (UniProt P09619); conditions: Compound concentration 100.0 nM
[4] = target: D(2) dopamine receptor (Homo sapiens) (UniProt P14416); conditions: Compound concentration 10.0 uM
[5] = target: Death-associated protein kinase 1 (Homo sapiens) (UniProt P53355); conditions: Compound concentration 100.0 nM
[6] = target: Receptor tyrosine-protein kinase erbB-3 (Homo sapiens) (UniProt P21860); conditions: Compound concentration 100.0 nM
Sequence of Receptor tyrosine-protein kinase erbB-3 (Homo sapiens) (P21860 whole entry): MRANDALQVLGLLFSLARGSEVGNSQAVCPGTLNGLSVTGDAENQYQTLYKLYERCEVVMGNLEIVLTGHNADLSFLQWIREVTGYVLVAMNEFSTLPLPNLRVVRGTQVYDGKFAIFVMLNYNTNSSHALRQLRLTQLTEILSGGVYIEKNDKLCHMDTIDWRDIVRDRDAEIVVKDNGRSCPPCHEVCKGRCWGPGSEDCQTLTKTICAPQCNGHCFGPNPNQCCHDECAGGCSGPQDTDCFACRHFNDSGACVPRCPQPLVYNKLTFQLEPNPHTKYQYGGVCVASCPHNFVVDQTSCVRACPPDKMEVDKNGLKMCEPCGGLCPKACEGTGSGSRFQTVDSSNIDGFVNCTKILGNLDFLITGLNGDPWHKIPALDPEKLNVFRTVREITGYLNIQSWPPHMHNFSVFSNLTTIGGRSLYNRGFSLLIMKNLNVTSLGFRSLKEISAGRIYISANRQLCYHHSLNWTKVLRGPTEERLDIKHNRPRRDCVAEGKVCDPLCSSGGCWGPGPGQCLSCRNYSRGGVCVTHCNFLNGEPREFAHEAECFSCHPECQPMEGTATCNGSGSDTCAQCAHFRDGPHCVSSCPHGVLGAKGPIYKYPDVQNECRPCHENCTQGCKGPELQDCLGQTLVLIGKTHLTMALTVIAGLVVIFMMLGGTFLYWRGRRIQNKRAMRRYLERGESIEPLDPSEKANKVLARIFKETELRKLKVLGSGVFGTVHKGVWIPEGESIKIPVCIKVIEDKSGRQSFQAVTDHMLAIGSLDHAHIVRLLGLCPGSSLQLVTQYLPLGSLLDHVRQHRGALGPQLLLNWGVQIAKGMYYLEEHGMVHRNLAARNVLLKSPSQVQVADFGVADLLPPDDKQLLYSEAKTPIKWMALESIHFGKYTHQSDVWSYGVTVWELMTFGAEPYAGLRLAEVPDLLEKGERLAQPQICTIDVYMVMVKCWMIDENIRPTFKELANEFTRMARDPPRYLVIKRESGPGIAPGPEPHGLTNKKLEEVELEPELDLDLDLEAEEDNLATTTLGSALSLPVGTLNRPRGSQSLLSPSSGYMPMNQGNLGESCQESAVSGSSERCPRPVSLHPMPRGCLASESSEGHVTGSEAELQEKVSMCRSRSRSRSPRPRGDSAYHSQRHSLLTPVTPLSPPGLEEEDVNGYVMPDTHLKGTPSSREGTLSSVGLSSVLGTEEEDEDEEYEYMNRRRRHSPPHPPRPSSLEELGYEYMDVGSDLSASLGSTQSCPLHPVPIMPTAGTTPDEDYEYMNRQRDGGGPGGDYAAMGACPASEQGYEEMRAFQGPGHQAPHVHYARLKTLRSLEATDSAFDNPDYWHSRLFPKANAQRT

[7] = target: Ribosomal protein S6 kinase alpha-1 (Homo sapiens) (UniProt Q15418); conditions: Compound concentration 100.0 nM
[8] = test system: Serine/threonine-protein kinase B-raf (Homo sapiens), P15056 [V600E]; conditions: Compound concentration 100.0 nM
[9] = target: Activin receptor type-2A (Homo sapiens) (UniProt P27037); conditions: Compound concentration 100.0 nM
[10] = target: Mitogen-activated protein kinase kinase kinase 11 (Homo sapiens) (UniProt Q16584); conditions: Compound concentration 100.0 nM
[11] = target: MAP/microtubule affinity-regulating kinase 3 (Homo sapiens) (UniProt P27448); conditions: Compound concentration 100.0 nM
Sequence of MAP/microtubule affinity-regulating kinase 3 (Homo sapiens) (P27448 whole entry, looked up, canonical isoform): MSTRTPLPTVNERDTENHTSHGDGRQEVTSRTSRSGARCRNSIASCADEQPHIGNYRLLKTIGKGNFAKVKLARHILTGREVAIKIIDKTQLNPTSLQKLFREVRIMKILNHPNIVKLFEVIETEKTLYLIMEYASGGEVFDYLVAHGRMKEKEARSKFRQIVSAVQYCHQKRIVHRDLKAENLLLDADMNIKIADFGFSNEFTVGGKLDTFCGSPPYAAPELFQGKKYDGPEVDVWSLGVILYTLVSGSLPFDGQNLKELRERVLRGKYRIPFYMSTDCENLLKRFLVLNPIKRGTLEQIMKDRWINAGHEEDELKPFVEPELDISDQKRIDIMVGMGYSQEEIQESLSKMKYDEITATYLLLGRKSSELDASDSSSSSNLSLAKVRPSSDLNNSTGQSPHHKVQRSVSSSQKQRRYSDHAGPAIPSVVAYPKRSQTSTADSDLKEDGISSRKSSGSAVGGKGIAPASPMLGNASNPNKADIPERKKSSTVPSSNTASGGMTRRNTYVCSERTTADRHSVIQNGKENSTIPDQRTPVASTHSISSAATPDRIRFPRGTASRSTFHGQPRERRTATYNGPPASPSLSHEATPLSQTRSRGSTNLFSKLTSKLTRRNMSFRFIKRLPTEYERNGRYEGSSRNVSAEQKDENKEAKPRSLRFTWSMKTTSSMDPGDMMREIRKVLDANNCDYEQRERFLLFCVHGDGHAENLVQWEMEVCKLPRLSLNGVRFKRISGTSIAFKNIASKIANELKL

[12] = target: Phosphorylase b kinase regulatory subunit alpha, liver isoform (Homo sapiens) (UniProt P46019); conditions: Compound concentration 100.0 nM
[13] = test system: Mast/stem cell growth factor receptor Kit (Homo sapiens), P10721 [V559D,T670I]; conditions: Compound concentration 100.0 nM
Sequence of Mast/stem cell growth factor receptor Kit (Homo sapiens), P10721 [V559D,T670I] (P10721 whole entry V559D/T670I): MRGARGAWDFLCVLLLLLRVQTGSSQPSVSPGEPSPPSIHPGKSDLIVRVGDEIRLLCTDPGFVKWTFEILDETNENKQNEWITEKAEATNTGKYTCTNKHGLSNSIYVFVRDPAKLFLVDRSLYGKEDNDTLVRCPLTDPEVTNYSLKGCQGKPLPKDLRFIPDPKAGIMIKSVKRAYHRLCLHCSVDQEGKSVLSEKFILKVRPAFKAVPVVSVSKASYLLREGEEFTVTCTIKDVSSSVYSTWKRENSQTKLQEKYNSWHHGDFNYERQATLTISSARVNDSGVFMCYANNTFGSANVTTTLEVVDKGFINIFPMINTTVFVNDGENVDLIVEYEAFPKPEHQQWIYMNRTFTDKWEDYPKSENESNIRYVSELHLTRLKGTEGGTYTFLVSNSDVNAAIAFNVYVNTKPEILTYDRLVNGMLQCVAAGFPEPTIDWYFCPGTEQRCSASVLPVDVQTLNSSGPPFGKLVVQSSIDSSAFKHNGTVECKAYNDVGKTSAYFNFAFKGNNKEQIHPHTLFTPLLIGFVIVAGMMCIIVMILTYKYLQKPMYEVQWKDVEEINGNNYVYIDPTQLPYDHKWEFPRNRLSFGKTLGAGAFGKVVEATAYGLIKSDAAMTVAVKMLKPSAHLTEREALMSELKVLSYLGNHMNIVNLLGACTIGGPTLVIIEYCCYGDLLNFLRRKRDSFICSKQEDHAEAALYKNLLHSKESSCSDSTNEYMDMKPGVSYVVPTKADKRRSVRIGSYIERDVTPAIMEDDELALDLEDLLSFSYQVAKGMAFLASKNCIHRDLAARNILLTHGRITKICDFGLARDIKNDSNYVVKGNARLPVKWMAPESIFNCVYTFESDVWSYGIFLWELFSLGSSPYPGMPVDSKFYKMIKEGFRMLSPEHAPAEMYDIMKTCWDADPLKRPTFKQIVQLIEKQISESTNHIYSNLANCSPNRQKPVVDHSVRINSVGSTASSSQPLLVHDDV

[14] = target: Fibroblast growth factor receptor 2 (Homo sapiens) (UniProt P21802); conditions: Compound concentration 100.0 nM
Sequence of Fibroblast growth factor receptor 2 (Homo sapiens) (P21802 22-821 limits assumed): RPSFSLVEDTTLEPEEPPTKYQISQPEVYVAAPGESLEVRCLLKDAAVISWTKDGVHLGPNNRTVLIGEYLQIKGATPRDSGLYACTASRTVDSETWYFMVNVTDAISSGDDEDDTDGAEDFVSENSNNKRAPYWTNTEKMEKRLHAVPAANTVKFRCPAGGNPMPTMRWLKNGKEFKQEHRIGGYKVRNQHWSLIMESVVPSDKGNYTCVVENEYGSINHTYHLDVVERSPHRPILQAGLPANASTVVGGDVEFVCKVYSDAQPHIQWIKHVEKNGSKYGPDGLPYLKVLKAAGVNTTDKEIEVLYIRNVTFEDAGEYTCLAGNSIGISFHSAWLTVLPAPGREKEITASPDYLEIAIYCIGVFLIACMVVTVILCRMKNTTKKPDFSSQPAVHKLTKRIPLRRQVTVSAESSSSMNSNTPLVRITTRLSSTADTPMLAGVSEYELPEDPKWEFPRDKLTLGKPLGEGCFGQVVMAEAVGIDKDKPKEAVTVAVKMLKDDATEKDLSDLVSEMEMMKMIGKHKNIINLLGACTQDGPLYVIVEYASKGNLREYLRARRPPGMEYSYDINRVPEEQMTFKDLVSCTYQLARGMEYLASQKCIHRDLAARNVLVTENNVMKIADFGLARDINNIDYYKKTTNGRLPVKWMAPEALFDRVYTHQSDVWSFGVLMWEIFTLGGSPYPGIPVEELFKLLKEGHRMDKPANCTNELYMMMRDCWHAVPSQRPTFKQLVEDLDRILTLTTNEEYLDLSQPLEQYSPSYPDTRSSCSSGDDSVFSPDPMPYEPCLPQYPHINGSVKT

[15] = test system: Tyrosine-protein kinase ABL1 (Homo sapiens), P00519 [H396P]; conditions: Compound concentration 100.0 nM
[16] = target: Dual serine/threonine and tyrosine protein kinase (Homo sapiens) (UniProt Q6XUX3); conditions: Compound concentration 100.0 nM
[17] = target: Serine/threonine-protein kinase MRCK gamma (Homo sapiens) (UniProt Q6DT37); conditions: Compound concentration 100.0 nM
[18] = test system: Epidermal growth factor receptor (Homo sapiens), P00533 [UNDEFINED MUTATION]; conditions: Compound concentration 100.0 nM
[19] = test system: Proto-oncogene tyrosine-protein kinase receptor Ret (Homo sapiens), P07949 [M918T]; conditions: Compound concentration 100.0 nM
[20] = target: ALK tyrosine kinase receptor (Homo sapiens) (UniProt Q9UM73); conditions: Compound concentration 100.0 nM
[21] = target: Death-associated protein kinase 2 (Homo sapiens) (UniProt Q9UIK4); conditions: Compound concentration 100.0 nM
[22] = target: Epidermal growth factor receptor (Homo sapiens) (UniProt P00533); conditions: Compound concentration 100.0 nM
[23] = target: RAF proto-oncogene serine/threonine-protein kinase (Homo sapiens) (UniProt P04049); conditions: Compound concentration 100.0 nM
[24] = target: Proto-oncogene tyrosine-protein kinase Src (Homo sapiens) (UniProt P12931); conditions: Compound concentration 100.0 nM
[25] = target: MAP/microtubule affinity-regulating kinase 4 (Homo sapiens) (UniProt Q96L34); conditions: Compound concentration 100.0 nM
[26] = target: Cyclin-dependent kinase 17 (Homo sapiens) (UniProt Q00537); conditions: Compound concentration 100.0 nM
[27] = target: Serine/threonine-protein kinase WNK4 (Homo sapiens) (UniProt Q96J92); conditions: Compound concentration 100.0 nM
[28] = target: Cyclin-dependent kinase 19 (Homo sapiens) (UniProt Q9BWU1); conditions: Compound concentration 100.0 nM
[29] = target: Tyrosine-protein kinase receptor TYRO3 (Homo sapiens) (UniProt Q06418); conditions: Compound concentration 100.0 nM
Sequence of Tyrosine-protein kinase receptor TYRO3 (Homo sapiens) (Q06418 whole entry): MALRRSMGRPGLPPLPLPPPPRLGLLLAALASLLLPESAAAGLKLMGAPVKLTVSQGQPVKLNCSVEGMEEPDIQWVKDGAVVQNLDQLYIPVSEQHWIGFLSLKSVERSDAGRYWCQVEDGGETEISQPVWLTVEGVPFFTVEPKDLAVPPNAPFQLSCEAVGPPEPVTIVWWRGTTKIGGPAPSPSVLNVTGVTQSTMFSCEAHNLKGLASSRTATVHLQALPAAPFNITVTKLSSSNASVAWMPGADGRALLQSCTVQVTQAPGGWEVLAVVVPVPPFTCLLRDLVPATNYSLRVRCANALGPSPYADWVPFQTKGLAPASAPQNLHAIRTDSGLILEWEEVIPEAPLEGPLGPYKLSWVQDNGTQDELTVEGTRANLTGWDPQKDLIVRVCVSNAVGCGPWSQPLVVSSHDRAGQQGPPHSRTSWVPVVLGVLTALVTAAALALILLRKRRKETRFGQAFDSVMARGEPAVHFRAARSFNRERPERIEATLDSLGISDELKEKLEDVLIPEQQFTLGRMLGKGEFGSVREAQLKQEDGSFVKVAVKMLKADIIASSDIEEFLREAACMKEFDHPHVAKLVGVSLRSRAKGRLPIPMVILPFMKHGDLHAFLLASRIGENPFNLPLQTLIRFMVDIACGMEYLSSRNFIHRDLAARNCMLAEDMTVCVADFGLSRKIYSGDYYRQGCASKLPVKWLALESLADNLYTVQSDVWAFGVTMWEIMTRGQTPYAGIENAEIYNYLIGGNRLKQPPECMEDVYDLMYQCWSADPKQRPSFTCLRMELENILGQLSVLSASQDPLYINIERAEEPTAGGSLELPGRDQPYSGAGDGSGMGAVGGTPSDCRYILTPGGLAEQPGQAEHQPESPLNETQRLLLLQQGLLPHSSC

[30] = target: Wee1-like protein kinase 2 (Homo sapiens) (UniProt P0C1S8); conditions: Compound concentration 100.0 nM
[31] = test system: Fibroblast growth factor receptor 3 (Homo sapiens), P22607 [G697C]; conditions: Compound concentration 100.0 nM
[32] = target: Alpha-1B adrenergic receptor (Homo sapiens) (UniProt P35368); conditions: Compound concentration 10.0 uM
[33] = target: Serine/threonine-protein kinase 26 (Homo sapiens) (UniProt Q9P289); conditions: Compound concentration 100.0 nM
[34] = target: Tyrosine-protein kinase Fer (Homo sapiens) (UniProt P16591); conditions: Compound concentration 100.0 nM
[35] = target: Ribosomal protein S6 kinase alpha-3 (Homo sapiens) (UniProt P51812); conditions: Compound concentration 100.0 nM
[36] = target: Inhibitor of nuclear factor kappa-B kinase subunit alpha (Homo sapiens) (UniProt O15111); conditions: Compound concentration 100.0 nM
[37] = target: Testis-specific serine/threonine-protein kinase 3 (Homo sapiens) (UniProt Q96PN8); conditions: Compound concentration 100.0 nM
[38] = target: Maternal embryonic leucine zipper kinase (Homo sapiens) (UniProt Q14680); conditions: Compound concentration 100.0 nM
[39] = test system: Mast/stem cell growth factor receptor Kit (Homo sapiens), P10721 [V559D,V654A]; conditions: Compound concentration 100.0 nM
[40] = target: Proto-oncogene tyrosine-protein kinase ROS (Homo sapiens) (UniProt P08922); conditions: Compound concentration 100.0 nM
[41] = target: Dual specificity tyrosine-phosphorylation-regulated kinase 1A (Homo sapiens) (UniProt Q13627); conditions: Compound concentration 100.0 nM
[42] = target: Bone morphogenetic protein receptor type-1B (Homo sapiens) (UniProt O00238); conditions: Compound concentration 100.0 nM
[43] = target: Calcium/calmodulin-dependent protein kinase type 1B (Homo sapiens) (UniProt Q6P2M8); conditions: Compound concentration 100.0 nM
Sequence of Calcium/calmodulin-dependent protein kinase type 1B (Homo sapiens) (Q6P2M8 whole entry): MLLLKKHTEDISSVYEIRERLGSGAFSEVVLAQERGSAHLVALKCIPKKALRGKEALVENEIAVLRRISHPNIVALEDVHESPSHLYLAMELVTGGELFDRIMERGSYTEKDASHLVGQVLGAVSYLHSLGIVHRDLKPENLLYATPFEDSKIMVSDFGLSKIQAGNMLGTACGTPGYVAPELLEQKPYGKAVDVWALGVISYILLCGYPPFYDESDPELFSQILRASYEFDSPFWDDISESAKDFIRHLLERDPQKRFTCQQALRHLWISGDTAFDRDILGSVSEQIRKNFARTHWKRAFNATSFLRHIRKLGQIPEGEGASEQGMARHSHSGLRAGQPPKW

[44] = target: Phosphatidylinositol 5-phosphate 4-kinase type-2 gamma (Homo sapiens) (UniProt Q8TBX8); conditions: Compound concentration 100.0 nM
[45] = target: 3-phosphoinositide-dependent protein kinase 1 (Homo sapiens) (UniProt O15530); conditions: Compound concentration 100.0 nM

## O=C(NCCCC1CCCCC1)c1ccc(CNC(=O)c2cnn(-c3ccccc3)c2C(F)(F)F)cc1 [SR-321]
[1]
  residual activity: 100%
[2]
  residual activity: 96%
[3]
  residual activity: 100%
[4]
  inhibition: 15.8%
[5]
  residual activity: 100%
[6]
  residual activity: 100%
[7]
  residual activity: 100%
[8]
  residual activity: 100%
[9]
  residual activity: 83%
[10]
  residual activity: 100%
[11]
  residual activity: 94%
[12]
  residual activity: 100%
[13]
  residual activity: 100%
[14]
  residual activity: 100%
[15]
  residual activity: 98%
[16]
  residual activity: 100%
[17]
  residual activity: 99%
[18]
  residual activity: 100%
[19]
  residual activity: 100%
[20]
  residual activity: 100%
[21]
  residual activity: 98%
[22]
  residual activity: 100%
[23]
  residual activity: 99%
[24]
  residual activity: 100%
[25]
  residual activity: 98%
[26]
  residual activity: 100%
[27]
  residual activity: 100%
[28]
  residual activity: 96%
[29]
  residual activity: 100%
[30]
  residual activity: 100%
[31]
  residual activity: 100%
[32]
  inhibition: -3.62%
[33]
  residual activity: 93%
[34]
  residual activity: 98%
[35]
  residual activity: 100%
[36]
  residual activity: 100%
[37]
  residual activity: 100%
[38]
  residual activity: 80%
[39]
  residual activity: 100%
[40]
  residual activity: 100%
[41]
  residual activity: 99%
[42]
  residual activity: 92%
[43]
  residual activity: 79%
[44]
  residual activity: 99%
[45]
  residual activity: 100%

## Nc1c(C(=O)NCc2ccc(C(=O)NCCCC3CCCCC3)cc2)cnn1-c1ccccc1 [SR-318]
[1]
  residual activity: 100%
[2]
  residual activity: 100%
[3]
  residual activity: 100%
[4]
  inhibition: 15%
[5]
  residual activity: 92%
[6]
  residual activity: 44%
[7]
  residual activity: 100%
[8]
  residual activity: 100%
[9]
  residual activity: 100%
[10]
  residual activity: 76%
[11]
  residual activity: 78%
[12]
  residual activity: 100%
[13]
  residual activity: 98%
[14]
  residual activity: 100%
[15]
  residual activity: 80%
[16]
  residual activity: 100%
[17]
  residual activity: 100%
[18]
  residual activity: 100%
[19]
  residual activity: 100%
[20]
  residual activity: 100%
[21]
  residual activity: 100%
[22]
  residual activity: 99%
[23]
  residual activity: 100%
[24]
  residual activity: 100%
[25]
  residual activity: 76%
[26]
  residual activity: 78%
[27]
  residual activity: 80%
[28]
  residual activity: 99%
[29]
  residual activity: 100%
[30]
  residual activity: 100%
[31]
  residual activity: 87%
[32]
  inhibition: 8.69%
[33]
  residual activity: 97%
[34]
  residual activity: 90%
[35]
  residual activity: 92%
[36]
  residual activity: 100%
[37]
  residual activity: 100%
[38]
  residual activity: 92%
[39]
  residual activity: 100%
[40]
  residual activity: 83%
[41]
  residual activity: 100%
[42]
  residual activity: 100%
[43]
  residual activity: 100%
[44]
  residual activity: 100%
[45]
  residual activity: 100%
